Values after ≈ are worked out from the molar mass of the structure shown. Active and inactive are the calls of the source. No cut-off for these calls is given here.
What was measured:
[1] = test system: HeLa; experiment: Cytotoxicity against human HeLa cells by MTT assay; type: cell-based
[2] = test system: Trichomonas vaginalis; experiment: Antimicrobial activity against clinical isolate of Trichomonas vaginalis; type: functional
[3] = test system: Spermatozoa; experiment: Spermicidal activity against human spermatozoa at 10 mg/ml by modified sander-cramer assay; type: functional
[4] = Antimicrobial activity against Lactobacillus jensenii
[5] = test system: Trichomonas vaginalis; experiment: Antimicrobial activity against Trichomonas vaginalis ATCC 25258; type: functional

Row | Compound | EC50 [1] [µg/mL] | MIC [2] | Activity [3] | EC50 [4] [µg/mL] | MIC [5]
1 | Cc1ncc([N+](=O)[O-])n1CCO [METRONIDAZOLE] | > 1000 | 2 µg/mL (≈ 11.7 µM) | inactive | > 1000 | 62.5 µg/mL (≈ 365 µM)
2 | C=C[C@H]1CN2CC[C@H]1C[C@@H]2[C@@H](O)c1ccnc2ccccc12 [CINCHONINE] | 697 (≈ 2370 µM) | inactive | – | 428 (≈ 1450 µM) | inactive
3 | C=C[C@H]1CN(CC(C)C)CC[C@H]1CCC(=O)c1ccnc2ccccc12 | – | – | inactive | – | –
4 | C=C[C@H]1CN(CCCCC)CC[C@H]1CCC(=O)c1ccnc2ccccc12.O=C(O)C(O)C(O)C(=O)O | 19.1 | 1.5 µg/mL | – | 76.3 | 3.12 µg/mL
5 | C=C[C@H]1CN(CCCCC)CC[C@H]1CC(=C)C(=O)c1ccnc2ccccc12.O=C(O)C(O)C(O)C(=O)O | 104 | 12.5 µg/mL | – | 130 | 25 µg/mL
6 | CCCCCCCCCc1ccc(OCCOCCOCCOCCOCCOCCOCCOCCOCCO)cc1 [NONOXYNOL 9] | 33.2 (≈ 53.8 µM) | 37.5 µg/mL (≈ 60.8 µM) | – | 32.5 (≈ 52.7 µM) | 37.5 µg/mL (≈ 60.8 µM)
7 | C=C[C@H]1CNCC[C@H]1CCC(=O)c1ccnc2ccccc12 [CINCHOTOXIN] | > 1000 | inactive | – | 449 (≈ 1530 µM) | inactive
8 | C=C[C@H]1CN(CCCC)CC[C@H]1CC(=C)C(=O)c1ccnc2ccccc12.O=C(O)C(O)C(O)C(=O)O | 138 | 3.12 µg/mL | – | 321 | 50 µg/mL
9 | C=C[C@H]1CN(CCCCCCCC)CC[C@H]1CCC(=O)c1ccnc2ccccc12 | – | – | inactive | – | –
10 | C=C[C@H]1CN(CCCCCC)CC[C@H]1CCC(=O)c1ccnc2ccccc12 | – | – | inactive | – | –
11 | C=C[C@H]1CN(CC)CC[C@H]1CC(=C)C(=O)c1ccnc2ccccc12.O=C(O)C(O)C(O)C(=O)O | 133 | 12.5 µg/mL | – | 685 | 50 µg/mL
12 | C=C[C@H]1CN(CCCC)CC[C@H]1CCC(=O)c1ccnc2ccccc12 | – | – | inactive | – | –
13 | C=C[C@H]1CN(CC)CC[C@H]1CCC(=O)c1ccnc2ccccc12 | – | – | inactive | – | –
14 | C=C[C@H]1CN(CCC)CC[C@H]1CCC(=O)c1ccnc2ccccc12.O=C(O)C(O)C(O)C(=O)O | 276 | 25 µg/mL | – | 526 | 100 µg/mL
